A short description of data set [1]: Metabolism in liver microsomal enzymes (liver S9 fraction). Type of data set: in vitro ADME, mouse. To be noted: for Degrade %: liver S9 fraction; for HPLC peak area of drug: liver S9 fraction + NADPH, 37° C. Here is the method: The liver of a mouse was taken out and washed by cold normal saline and dried with filter paper, then cut into small pieces. They were washed 2-3 times with ice cold PBS (pH=7.4) until the elute became colorless or faint yellow. The small pieces of the liver were cut into fragments. Then PBS (pH=7.4) solution in an amount four times of the weight of the liver was added. The liver fragments were homogenated under ice-bath to avoid the down-regulation of enzymatic activity. The homogenated mixture was transferred into a centrifuge tube with stopper and centrifuged for 20 min at 4000 r/min to get the supernatant. Then, the supernatant was centrifuged at 12000 r/min for 20 min to get the supernatant, which was the S9 fraction.
Liver microsomal S9 was mixed with drug solutions. 1800 μL of the mixture in test tube was pre-incubated in a water-bath for 5 min at 37° C. 200 μL of 10 mmol/L NADPH solution was added to start the reaction. The final reaction volume was 2 mL. 200 μL of the incubation solution was taken at 0 min, 10 min, 20 min, 40 min, 1 h, 2 h, 4 h, 6 h, 12 h, respectively. 1 mL of ice cold isopropanol was added into the solution immediately and vortexed for 30 s and kept still for 5 min. 2.5 mL of EtOAc was added and vortexed and centrifuged at 4000 rpm for 15 min. The supernatant was taken and dried by blowing in nitrogen. The dried sample was redissolved in 200 μL HPLC mobile phase solution. 20 μL sample was loaded to the HPLC. The chromatography and peak area were recorded.
Background: Liver microsomes are vesicles of endoplasmic reticulum, rich in cytochrome P450 enzymes.

Data set [2] can be described thus: Dissolution in water (description of material). Type of data set: physicochemical. To be noted: white powder.
In data set [3] the test system is A549: a human lung cancer cell line. Kind of data set: MTT analytical method, A549 cells. Type of data set: cell-based. The following applies: 72 h. In general terms: Tetrazolium dyes change colour on reduction, which living cells bring about.
Data set [4] relates to LOVO: a human colon cancer cell line. Kind of data set: MTT analytical method, LOVO cells. Type of data set: cell-based. To be noted: 72 h. From the text:
MTT analytical method was used to test the prodrugs for various tumor cells.
• 1) Cell lines: NCI-H460, A549, LOVO, HT-29, MDA-MB-231, SGC7901, HepG2 or BEL-7402 cell lines. Culture: adherent culturing in D-MEM (Hyclone, Inc.) containing 10% fetal calf serum. The initial cell concentration was about 3×10^5 /mL. The cell was passaged by 1:3 dilution in every 2-3 days. On the day before the test, the cell was passaged by 1:2 dilution, the cell concentration for the test was 5-10×10^5 /mL. • 2) Dissolution and dilution of compounds: according to the weight and molecular weight of the drugs provided, 100-200 μL of DMSO was added. Then normal saline was added to make the final diluted concentration of the drugs be 5 mM (Note that the final concentration of DMSO should not be more than 10%). • 3) D-MEM or RPMI 1640 cell culture medium, Gibco, Inc. • 4) Fetal calf serum Hyclone, Inc. • 5) Cell dissociation buffer, 0.25% Trypsin+0.02% EDTA. • 6) MTT solution, MTT Powder (Sigma) were dissolved in PBS buffer solution to make a solution of 5 mg/mL. The solution was filtered by a 0.22 μm micropore membrane and stored at −20° C. • 7) PBS buffer solution. • 8) 10% acidified SDS, 0.01N HCl. • 9) Centrifuge tubes, haustorial tubes etc. (BD, Inc.); 96-well plates (Costatr, Inc.) Procedures: • 1) Cell inoculation: Cells grown for 24 hours after passage, which cells were in good growth state, were used. The cells were harvested by the routine method. The cell concentration was adjust with a fresh culture solution to 2×10^5/mL (for adherent cells)-3×10^5/mL (for suspension cells). The adherent cells were inoculated at 100 μL/well and then cultivated in an incubator with 5% CO2 at 37° C. for 24 h. Thereafter the used culture solution was removed and 95 μL/well of fresh culture solution was added. The suspension cells were inoculated at 95 μL/well directly. • 2) Drugs treatment: 9 concentration grades were designed for every drug, and every concentration had 3 wells. The control group had 5 wells. The control group was tested simultaneously in each test. The final concentrations of a drug added were […], and 5 μL normal saline was added to the control group. • 3) Cell culture and detection: the cells were cultured in an incubator with 5% CO2 at 37° C. for 72 h after the drug was added, then 10 μL MTT was added to each well and the culture was continued for 4 h. 100 μL of 10% SDS (containing 0.01N HCl) was added to each well. After 24 h, the absorbance (A) of each well was determined by Bio-rad 680 ELISA with the detection wavelength of 570 nm and the reference wavelength of 630 nm. Calculation:
First, the absorbance (A) of each well was averaged (removing any data with big difference). […] A0 was the mean absorbance of the control wells. The effect curve of the drug concentration was drawn using EXCEL software and the drug concentration for 50% cell survival was calculated according to an appropriate computing methods.

The source of these data is US8653048B2 (Sanlugen Pharmatech Ltd., priority 2009, dated 2014).

A word on the IC50: it is the concentration needed to halve the response being measured. A higher IC50 goes with weaker potency in that assay. Turning to `Nc1ccn([C@@H]2O[C@H](CO)[C@@H](O)C2(F)F)c(=O)n1` [Gemcitabine, gemcitabine, reference compound], the Degrade % in data set [1] (0 min) was 0%; in data set [1] (1 h) it was 3.64%; in data set [1] (2 h), 56.16%; in data set [1] (4 h), 72.02%; in data set [1] (6 h) it was 85.55%; in data set [1] (12 h) it was 95.13%. Besides, in data set [2], the “solubility in water, in words” value is “can be easily dissolved in water”. The half-inhibitory concentration (IC50) in data set [3] is below 2 µM; in data set [4], below 1 µM.
With `CCCCCCCCCCCCOC(=O)c1nccnc1C(=O)Nc1ccn([C@@H]2O[C@H](CO)[C@@H](O)C2(F)F)c(=O)n1` [Compound 4, Dodecyl-3-((1-((2R,4R,5R)-3,3-difluoro-4-hydroxy-5-(hydroxymethyl)-tetrahydrofuran-2-yl)-2-oxo-1,2-dihydropyrimidin-4-yl)carbamoyl)pyrazine-2-carboxylate], the “HPLC peak area of drug” value in data set [1] (0 min) is listed as 179613.3; in data set [1] (1 h) it was 172893.5; in data set [1] (2 h) it was 142419.3; in data set [1] (4 h) it was 64632.59; in data set [1] (6 h) it was 27009.4; in data set [1] (12 h), 18730.51. The Degrade % in data set [1] (0 min) came out at 0%; in data set [1] (1 h), 3.74%; in data set [1] (2 h) it was 20.71%; in data set [1] (4 h), 64.02%; in data set [1] (6 h) it was 84.96%; in data set [1] (12 h) it was 89.57%. For the same compound, the “solubility in water, in words” value in data set [2] is “cannot be dissolved in water well”. Besides, the IC50 was below 2 µM in data set [3] and 16 µM in data set [4].
